# Experimental data reported in US20170037008A1, “PHENYL BENZYL ETHER DERIVATIVE AND PREPARATION METHOD AND APPLICATION THEREOF” (BEIJING ZHIBO BIO-MEDICAL TECHNOLOGY CO., LTD, priority 2013, published 2017).
# Like-named read-outs stand apart in the source and are kept apart here.
# Columns and labels:
# Aβ1-42 aggregates = target: T1, Aβ1-42 aggregates (Homo sapiens, UniProt P05067); experiment: In-vitro competitive binding experiments (Ki determination) with Aβ1-42 aggregates; conditions: for affinity with the Aβ1-42 aggregates compared with IMPY and PIB: competitive binding experiments
# T1 construct: Preparing receptor Aβ1-42 proteins according to the existing method
# Method: Binding reaction occurs between Aβ1-42 aggregate proteins with certain concentration and radioactive ligands [^125I] […] 4, the compounds are separated after balancing, and the inhibition constant (Ki) is calculated by determining radioactivity.
# (1) Preparing 4 l of PBS (0.2M) buffer solution with pH=7.4;
# (2) Preparing radioligand [^125]
# (3) Preparing the compounds to be determined into 10^−3 to 10^−9 mol/L continuously diluted ethanol solution;
# (4) Preparing receptor Aβ1-42 proteins according to the existing method and diluting the proteins into 30 nM water solution;
# (5) Soaking a glass fiber filter membrane in PBS solution containing 0.1% (volume fraction) polyethyleneimine for 0.5 h;
# (6) Respectively adding 100 μl of solution of compounds with different concentration and to be determined, 100 μl of [^125I]
# (7) Oscillating and incubating for 2 h in 37° C. constant-temperature water bath;
# (8) Collecting reaction liquid by using a multi-head cell collector, and washing the reaction liquid for three times by using PBS, 3 ml per time;
# (9) Measuring and counting by using a γ counter; and […]
# [1] = Biological distribution in bodies of normal mice; format: in vivo, mice (ICR); conditions: caudal vein injection
# Excerpt: Through in-vivo distribution experiments, pharmacokinetic features, especially initial bran intake and brain removal situations of ^18F or ^125I labeled compounds in the bodies of mice are studied. […] Data are expressed in radioactive percentage dosage per organ (% ID/organ) and radioactive percentage dosage per gram of organ (% ID/g).
# logD of labeled ligands = format: physicochemical
# [2] = competition against radioligand [^125I] IMPY, Aβ1-42 aggregates, 37° C., 2 h
# T1 sequence (P05067 672-713 limits assumed): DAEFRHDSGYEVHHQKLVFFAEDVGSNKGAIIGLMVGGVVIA
Compound,Ki (Aβ1-42 aggregates) [nM],Blood ([1]; 2 min) [% ID/g],Brain ([1]; 2 min) [% ID/g],Blood ([1]; 10 min) [% ID/g],Brain ([1]; 10 min) [% ID/g],Blood ([1]; 30 min) [% ID/g],Brain ([1]; 30 min) [% ID/g],Blood ([1]; 60 min) [% ID/g],Brain ([1]; 60 min) [% ID/g],logD (logD of labeled ligands),further results
"FCCOc1ccc(OCc2ccc(I)cc2)cc1 [Compound 31a, 1-(2-fluoroethoxy)-4-((4-iodobenzyl)oxy) benzene]",24.1 ± 8.8,,,,,,,,,,affinity with the Aβ1-42 aggregates compared with IMPY and PIB (Aβ1-42 aggregates): higher than that of the known compounds IMPY and PIB
"FCCOc1ccc(COc2ccc(I)cc2)cc1 [Compound 35a, 1-(2-fluoroethoxy)-4-((4-iodophenoxy)methyl) benzene]",23 ± 3.3,,,,,,,,,,affinity with the Aβ1-42 aggregates compared with IMPY and PIB (Aβ1-42 aggregates): higher than that of the known compounds IMPY and PIB
"COc1ccc(OCc2ccc(OCCF)cc2)cc1 [Compound 44a, 1-(2-fluoroethoxy)-4-((4-methoxyphenoxy)methyl) benzene]",167 ± 34.5,,,,,,,,,,
"CNc1ccc(OCc2ccc(OCCF)cc2)cc1 [Compound 46, 4-(4-(2-fluoroethoxy)benzyloxy)-N-methylaniline]",460 ± 82,,,,,,,,,,
"CN(C)c1ccc(OCc2ccc(OCCF)cc2)cc1 [Compound 47, 4-(4-(2-fluoroethoxy)benzyloxy)-N,N-dimethylaniline]",23 ± 5.3,,,,,,,,,,affinity with the Aβ1-42 aggregates compared with IMPY and PIB (Aβ1-42 aggregates): higher than that of the known compounds IMPY and PIB
"COc1ccc(COc2ccc(OCCF)cc2)cc1 [Compound 53a, 1-(2-fluoroethoxy)-4-(4 methoxybenzyloxy) benzene]",465 ± 18.8,,,,,,,,,,
O=c1ccc(I)cn1Cc1ccc(I)cc1 [Compound 58],,,,,,,,,,,Ki (Aβ1-42 aggregates; [2]): 1060 nM
FCCOc1ccc(COc2cccnc2I)cc1 [Compound 65],,,,,,,,,,,Ki (Aβ1-42 aggregates; [2]): 2080 ± 458 nM
"CN(C)c1ccc(CNc2ccc(I)cc2)cc1 [Compound 67, 4-(((4-iodophenyl)amino)methyl)-N,N-dimethylaniline]",124 ± 14.3,,,,,,,,,,
COc1ccc(OCc2ccc(OCC[18F])cc2)cc1 [[^18F]44a],,3.90 ± 0.25,7.54 ± 0.39,3.86 ± 0.24,3.32 ± 0.38,4.28 ± 0.23,2.77 ± 0.22,3.86 ± 0.39,2.33 ± 0.30,[^18F]44a (logD = 3.05 ± 0.08),Bone ([1]; 2 min): 1.50 ± 0.44 % ID/organ; Bone ([1]; 10 min): 1.04 ± 0.25 % ID/organ; Bone ([1]; 30 min): 1.43 ± 0.44 % ID/organ; Bone ([1]; 60 min): 4.05 ± 0.62 % ID/organ
COc1ccc(COc2ccc(OCC[18F])cc2)cc1 [[^18F] 53a],,4.26 ± 0.41,9.95 ± 2.36,4.61 ± 0.95,2.77 ± 0.19,3.76 ± 0.19,1.44 ± 0.18,3.05 ± 1.09,1.30 ± 0.16,[^18F] 53a (logD = 3.65 ± 0.04),Bone ([1]; 2 min): 2.37 ± 0.69 % ID/organ; Bone ([1]; 10 min): 2.76 ± 0.47 % ID/organ; Bone ([1]; 30 min): 4.02 ± 0.78 % ID/organ; Bone ([1]; 60 min): 5.89 ± 0.49 % ID/organ

# The next lines start with results.
Ki (Aβ1-42 aggregates) [nM],Blood ([1]; 2 min) [% ID/g],Brain ([1]; 2 min) [% ID/g],Blood ([1]; 10 min) [% ID/g],Brain ([1]; 10 min) [% ID/g],Blood ([1]; 30 min) [% ID/g],Brain ([1]; 30 min) [% ID/g],Blood ([1]; 60 min) [% ID/g],Brain ([1]; 60 min) [% ID/g],logD (logD of labeled ligands),Compound,further results
,3.95 ± 0.34,9.71 ± 1.31,4.14 ± 0.91,2.52 ± 0.20,3.40 ± 0.25,1.39 ± 0.10,2.36 ± 0.66,1.07 ± 0.10,[^18F] 53b (logD = 3.04 ± 0.04),COc1ccc(COc2ccc(OCCOCCOCC[18F])cc2)cc1 [[^18F] 53b],Bone ([1]; 2 min): 1.36 ± 0.35 % ID/organ; Bone ([1]; 10 min): 1.22 ± 0.42 % ID/organ; Bone ([1]; 30 min): 1.39 ± 0.54 % ID/organ; Bone ([1]; 60 min): 1.52 ± 0.27 % ID/organ
,3.03 ± 0.54,6.18 ± 0.99,3.32 ± 0.65,3.54 ± 0.35,2.56 ± 0.93,0.88 ± 0.15,1.70 ± 0.50,0.38 ± 0.05,[^125I]4 (logD = 4.00 ± 0.08),COc1ccc(OCc2ccc([125I])cc2)cc1 [[^125I]4],Thyroid ([1]; 2 min): 0.14 ± 0.04 % ID/organ; Thyroid ([1]; 10 min): 0.12 ± 0.04 % ID/organ; Thyroid ([1]; 30 min): 0.08 ± 0.01 % ID/organ; Thyroid ([1]; 60 min): 0.11 ± 0.02 % ID/organ
,4.01 ± 0.28,4.91 ± 0.60,2.46 ± 0.30,3.26 ± 0.24,2.53 ± 0.27,1.34 ± 0.12,1.34 ± 0.26,0.49 ± 0.07,[^125I]22 (logD = 2.89 ± 0.09),CN(C)c1ccc(OCc2ccc([125I])cc2)cc1 [[^125I]22],Thyroid ([1]; 2 min): 0.11 ± 0.03 % ID/organ; Thyroid ([1]; 10 min): 0.12 ± 0.03 % ID/organ; Thyroid ([1]; 30 min): 0.16 ± 0.04 % ID/organ; Thyroid ([1]; 60 min): 0.27 ± 0.04 % ID/organ
,5.13 ± 0.62,4.29 ± 1.06,4.26 ± 0.38,2.11 ± 0.38,3.31 ± 0.79,0.73 ± 0.17,2.60 ± 1.33,0.32 ± 0.09,[^125I]24 (logD = 4.16 ± 0.29),COc1ccc(COc2ccc([125I])cc2)cc1 [[^125I]24],Thyroid ([1]; 10 min): 0.07 ± 0.03 % ID/organ; Thyroid ([1]; 30 min): 0.17 ± 0.03 % ID/organ; Thyroid ([1]; 60 min): 0.19 ± 0.05 % ID/organ
,5.03 ± 0.20,7.04 ± 0.89,3.03 ± 0.48,2.73 ± 0.25,2.17 ± 0.31,1.05 ± 0.22,,0.55 ± 0.11,[^125I]31a (logD = 3.96 ± 0.22),FCCOc1ccc(OCc2ccc([125I])cc2)cc1 [[^125I]31a],Thyroid ([1]; 2 min): 0.12 ± 0.02 % ID/organ; Thyroid ([1]; 10 min): 0.09 ± 0.02 % ID/organ; Thyroid ([1]; 30 min): 0.12 ± 0.01 % ID/organ; Thyroid ([1]; 60 min): 0.16 ± 0.03 % ID/organ
,4.96 ± 0.35,5.27 ± 0.98,3.88 ± 0.79,2.28 ± 0.27,3.89 ± 0.53,0.81 ± 0.06,3.01 ± 1.07,0.37 ± 0.06,[^125I]35a (logD = 2.50 ± 0.23),FCCOc1ccc(COc2ccc([125I])cc2)cc1 [[^125I]35a],Thyroid ([1]; 2 min): 0.13 ± 0.02 % ID/organ; Thyroid ([1]; 10 min): 0.13 ± 0.01 % ID/organ; Thyroid ([1]; 30 min): 0.19 ± 0.04 % ID/organ; Thyroid ([1]; 60 min): 0.34 ± 0.10 % ID/organ
